Measurements reported in PubChem BioAssay AID2060505 (Molecular Pharmacology Branch, DTP, NCI, 2025).
Where “and” joins values, the source holds several entries; their conditions need not be identical. Identical values can stand only once.

System: 633275-114-R-J1-PDC complex spheroids, viability
Experiment: Anticancer human tumor 633275-114-R-J1-PDC patient-derived endometrial adenocarcinoma cell line growth inhibition [GQUAD]
Details: for viability, T/C: stronger effect = lower value
Description: DNA G-quadruplex Stabilizer Agents in Combinations in Complex Spheroids
A high-throughput screen of multi-cell type tumor spheroids was designed to identify active combinations of DNA G-quadruplex stabilizer agents and targeted small molecules. Complex spheroids include a stromal component modeled by human endothelial cells (HUVEC) and fibroblasts modeled by human mesenchymal stem cells (MSCs). The concentration ranges selected for each drug and investigational agent were based upon clinically achievable concentrations if the clinical Cmax of the agent was known.
Compounds. The drugs and investigational agents: pidnarulex (CX-5461; NSC782164), APTO-253 (NSC789042), BRACO-19 (NSC847499), peposertib (NSC802822), ceralasertib (NSC780249), elimusertib (NSC800525), camonsertib (NSC841442), AZD-1390 (NSC803789), olaparib (NSC753686), talazoparib (NSC767125), ART-558 (NSC835418), sotorasib (NSC818433), MRTX-1133 (NSC836407), SN-38 (NSC673596), topotecan (NSC609699), etoposide (NSC141540), doxorubicin (NSC123127), gemcitabine (NSC613327), 5-fluorouracil (NSC19893), paclitaxel (NSC125973), vemurafenib (NSC761431), panobinostat (NSC761190), R-306465 (JNJ-16241199; NSC773264), adavosertib (NSC754352), TP-3654 (NSC805149), carboplatin (NSC241240), KSQ-4279 (NSC840948), and staurosporine (NSC755774) were obtained from the National Cancer Institute (NCI) Developmental Therapeutics Program Chemical Repository (34). The FDA-approved anticancer drug set is available from the NCI Developmental Therapeutics Program. […] The stock solutions were prepared in dimethyl sulfoxide (DMSO, Sigma-Aldrich, St. Louis, MO, cat. D2650) at 800-fold the tested concentration and stored at -70 degrees C prior to their use. All drugs and investigational agents were tested over a range starting from a high concentration at or near the clinical Cmax and decreasing in half-log increments. If the clinical Cmax for an agent had not been determined, the highest concentration tested was 10 microM.
2.3 Cell Culture. All cells were maintained in an incubator at 37 degrees C and 5% CO2 with 95% humidity. The PDC lines were cultured according to standard operating procedures established by the NCI PDMR. All PDCs were thawed and cultured in Matrigel-coated flasks prepared with a working solution of 1X Ham's F-12 nutrient mix, without supplementation (Invitrogen, cat. 11765054), 100 U/mL penicillin-streptomycin (Invitrogen, cat. 15140122), and 2.5% Matrigel (Corning Inc., cat. 354248) for the first three passages. The 857933-349-R-J2-PDC line was cultured in 6C/Colon 1B media, which includes advanced DMEM/F-12 (Thermo Fisher Scientific, cat. 12634028), 10 mM HEPES (Thermo Fisher Scientific, cat. 15630080), 1X GlutaMAX supplement (Thermo Fisher Scientific, cat. 35050061), 0.1 mg/mL primocin (InvivoGen, cat. ant-pm-2), 10% defined fetal bovine serum, heat inactivated (HyClone Laboratories Inc., cat. SH30070.03HI), 50% L-WRN conditioned media (ATCC, cat. CRL-3276), 1.25 mM N-Acetyl-L-cysteine (Sigma-Aldrich, cat. A9165), 10 mM nicotinamide (Sigma-Aldrich, cat. N0636), 1X B-27 supplement (Thermo Fisher Scientific, cat. 17504044), 1X N-2 supplement (Thermo Fisher Scientific, cat. 17502048), 10 microM Y-27632 dihydrochloride (Tocris Bioscience, cat. 1254), and 50 ng/mL human EGF recombinant protein (Thermo Fisher Scientific, cat. PHG0311). The 485176-168-R4-J1-PDC line was cultured in Panc media, which includes all 6C/Colon 1B media components plus 100 ng/mL human FGF-10 (Thermo Fisher Scientific, cat. 100-26), 500 nM SB-431542 (Selleckchem, cat. S1067), and gastrin (Tocris, cat. 3006).
[…]

[1] = compound alone, run of 03/18/2024
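Note: spheroids exposed to the agents for seven days.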
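Throughout, for viability, T/C: percent of DMSO vehicle control viability which is 100%.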

SMILES	viability, T/C (compound 0.0316 µM)	viability, T/C (compound 0.1 µM)	viability, T/C (compound 0.316 µM)	viability, T/C (compound 1 µM)	viability, T/C (compound 3.16 µM)	viability, T/C (compound 10 µM)	IC50 (curve of compound)	IC50 [1]	IC50 (compound alone, run of 03/26/2024)	viability, T/C (compound 0.000999 µM)	viability, T/C (compound 0.00316 µM)	viability, T/C (compound 0.00999 µM)	viability, T/C (compound 0.0999 µM)
COc1cc(C2c3cc4c(cc3C(OC3OC5COC(C)OC5C(O)C3O)C3COC(=O)C23)OCO4)cc(OC)c1O (configuration not stated)	90.9% and 82.6% and 84.5%	71.1% and 64.9% and 66.1%	50.1% and 51.4% and 46.9%	44.4% and 42.1% and 49.9%	38.2% (2×) and 36.1%	32.7% and 30.8% and 28.3%	442 nM and 384 nM and 466 nM	–	–	–	–	–	–
COc1ccc([C@@H](O)c2cc(-c3ncnc4cc(N5CCOCC5)ccc34)c(F)cc2Cl)nn1	94.5% and 95% and 93.8%	98.8% and 89.7% and 92.3%	85.5% and 89.3% and 86.5%	73.6% and 74.7% and 67.5%	54.6% and 53.4% and 53.7%	35.3% and 42.5% and 31.2%	4050 nM and 4540 nM and 3480 nM	–	–	–	–	–	–
COc1cccc2c1C(=O)c1c(O)c3c(c(O)c1C2=O)CC(O)(C(=O)CO)CC3OC1CC(N)C(O)C(C)O1 (configuration not stated)	62% and 55.6% and 60.7%	45.2% and 39% and 44.2%	35.7% and 31.5% and 33%	21.9% and 16.8% and 22.1%	1.91% and 1.16% and 1.41%	2% and 1.77% and 1.5%	87.6 nM and 48.1 nM and 74.7 nM	–	–	–	–	–	–
COc1ncnc(C2CC2)c1-c1ncc2cnn(Cc3ccc(-c4nc(C(F)(F)F)cn4C(C)C)cc3)c2n1	91.5% and 91.7% and 98.3%	95.1% and 89.5% and 100%	86.6% and 85.3% and 100%	90.3% and 101% and 82.7%	98% and 106% and 95.6%	85% and 87.1% and 84.9%	> 10000 nM	–	–	–	–	–	–
Cc1[nH]c2ccc(F)cc2c1-c1nc2c3cccnc3c3ncccc3c2[nH]1	104% [middle of 12 runs]	102% [middle of 12 runs]	99.1% [middle of 12 runs]	92.6% [middle of 12 runs]	73% [middle of 12 runs]	72.2% [middle of 12 runs]	–	> 10000 nM	> 10000 nM	–	–	–	–
Cc1[nH]c2ccccc2c1CCNCc1ccc(/C=C/C(=O)NO)cc1	61.1% and 69.2% and 57.3%	–	18.1% and 22.3% and 22.9%	–	–	–	61.3 nM and 59.6 nM and 61.1 nM	–	–	101% and 103% and 102%	85.1% and 98.6% and 81.7%	77.8% and 64.2% and 81.9%	43% and 39.6% and 43.9%
Cc1cccc(N(C)C(=O)C2C(O)CCN2c2nc(C)cc(C(F)(F)F)c2C#N)c1 (configuration not stated)	104% and 106% and 102%	87.3% and 93.7% and 107%	96.6% and 105% and 93%	99.8% and 93.9% and 87.2%	104% and 103% and 98.8%	96.2% and 95.4% and 92.5%	> 10000 nM	–	–	–	–	–	–
Cc1cnc(CNC(=O)c2c(=O)c3ccc(N4CCCN(C)CC4)nc3n3c2sc2ccccc23)cn1	66.5% [middle of 12 runs]	51.1% [middle of 12 runs]	46.2% [middle of 11 runs]	41.8% [middle of 12 runs]	39% [middle of 12 runs]	33.2% [middle of 12 runs]	–	187 nM [middle of 12 runs]	–	–	–	–	–
Cn1ncnc1[C@H]1c2n[nH]c(=O)c3cc(F)cc(c23)N[C@@H]1c1ccc(F)cc1	79% (2×) and 83.2%	–	56.5% and 57.2% and 61.5%	–	–	–	> 316 nM	–	–	101% and 100% and 95.7%	97.5% and 87.7% and 88.7%	87.6% and 88.2% and 102%	69.5% and 71% and 65.5%
Nc1ccn(C2OC(CO)C(O)C2(F)F)c(=O)n1 (configuration not stated)	30.6% and 26.5% and 26.6%	24.7% and 22.3% and 23.2%	28.7% and 23.9% and 24.1%	25.4% and 23.2% and 21.9%	27.3% and 23.6% and 20.7%	21.7% and 17.1% and 18.9%	< 31.6 nM	–	–	–	–	–	–
O=C(NO)c1cnc(N2CCN(S(=O)(=O)c3ccc4ccccc4c3)CC2)nc1	75.3% and 69.1% and 84.1%	61.1% and 65.8% and 72.9%	38.8% and 38.6% and 43.8%	21.8% (2×) and 19.6%	12.8% and 12.7% and 13.8%	5.19% and 5.98% and 4.22%	177 nM and 198 nM and 252 nM	–	–	–	–	–	–
O=C(c1cc(Cc2n[nH]c(=O)c3ccccc23)ccc1F)N1CCN(C(=O)C2CC2)CC1	101% and 96.1% and 100%	94.1% and 84.6% and 94%	86.2% and 95.4% and 96.1%	85.2% and 91.4% and 78.4%	74.8% and 71.8% and 75.2%	58.2% and 52.5% and 61.2%	> 10000 nM	–	–	–	–	–	–
O=c1[nH]cc(F)c(=O)[nH]1	103% (2×) and 98.4%	90.1% and 99.8% and 94.7%	91.3% and 105% and 101%	95.9% and 91.8% and 94.2%	89.3% and 98.9% and 91.8%	77.6% and 72% and 67.4%	> 10000 nM	–	–	–	–	–	–
